# Laboratory results from patent publication US10604476B2, “Fluorinated amide derivatives and their uses as therapeutic agents” (Trillium Therapeutics Inc., priority 2015, dated 2020).
# Experiments:
# [1] = tested on: maximal electroshock seizure; test: Maximal Electroshock Seizure (MES) rat model; assay type: in vivo; details: po, 0.5 hour
# Method: Male, Sprague-Dawley rats and CD-1 mice were used for all studies. All animals were allowed ad-lib access to food and water except during experiment. Animals were housed within an animal vivarium maintained under a 12 h light:dark cycle (lights on: 07:00 h), and all experiments were conducted in the animals light phase. For all experiments, animals were habituated to the vivarium for a minimum of 72 h before experimentation. The experimental procedures used in the present investigation were conducted under the Association for Assessment and Accreditation of Laboratory Animal Care (AAALAC) and the Canadian Council on Animal Care (CCAC) guidelines. All compounds were sonicated in 5% Tween 80® in saline or methylcellulose 0.5% (wgt/vol), using MC and sterile water and injected in a dose volume of 5 ml/kg or 10 ml/kg (rat), and 10 ml/kg (mouse). Drugs were administered by either the oral, intraperitoneal or intravenous route. Male Sprague-Dawley rats of body weight 80-100 g were used for these studies. Each experiment was conducted over 3 consecutive days. On day 1 and 2, each rat received a single electrical stimulus (150 mA, 0.2 s duration, 60 Hz) via corneal electrodes moistened with saline (Shock stimulator type 221: Harvard apparatus). […] Typically this reflected approximately 70-90% of the initial group. […] On the test day following a defined drug pretreatment period, rats received a maximal electroshock (150 mA, 0.2 s duration, 60 Hz) via corneal electrodes. Protection was defined as absence of a full tonic seizure within 10 s of stimulus delivery. Twenty minutes before the MES procedure, the animals were tested on a fixed speed rotorod (best score from 3 trials at 8 r.p.m, trial duration=60 s) to give an early assessment of drug effect on gross motor function.
# [2] = tested on: gross motor function; test: Fixed speed rotorod, rat (gross motor function); details: Sprague-Dawley, in vivo, po
# Method: On the test day following a defined drug pretreatment period, rats received a maximal electroshock (150 mA, 0.2 s duration, 60 Hz) via corneal electrodes. Protection was defined as absence of a full tonic seizure within 10 s of stimulus delivery. Twenty minutes before the MES procedure, the animals were tested on a fixed speed rotorod (best score from 3 trials at 8 r.p.m, trial duration=60 s) to give an early assessment of drug effect on gross motor function.
# [3] = tested on: gross motor function; test: Rotorod, mouse (Table 8); details: in vivo, po, Table 8, mouse
# [4] = tested on: 6 Hz psychomotor seizure; test: Mouse 6 Hz model; assay type: in vivo; details: mice, ip, 0.5 hour, 32 mA
# Method: Male, Sprague-Dawley rats and CD-1 mice were used for all studies. All animals were allowed ad-lib access to food and water except during experiment. Animals were housed within an animal vivarium maintained under a 12 h light:dark cycle (lights on: 07:00 h), and all experiments were conducted in the animals light phase. For all experiments, animals were habituated to the vivarium for a minimum of 72 h before experimentation. The experimental procedures used in the present investigation were conducted under the Association for Assessment and Accreditation of Laboratory Animal Care (AAALAC) and the Canadian Council on Animal Care (CCAC) guidelines. All compounds were sonicated in 5% Tween 80® in saline or methylcellulose 0.5% (wgt/vol), using MC and sterile water and injected in a dose volume of 5 ml/kg or 10 ml/kg (rat), and 10 ml/kg (mouse). Drugs were administered by either the oral, intraperitoneal or intravenous route. […] Preliminary experiments established that these stimulus parameters elicited a psychomotor seizure, defined as the expression of at least one of the following behaviors: stun/immobility, forelimb clonus, straub tail, vibrissae tremor, lateral head movement in >95% of control animals. Protection was defined as complete absence of all the above behaviors within 20 s of stimulus delivery. The effective dose of compound necessary to protect against psychomotor seizures to 50% of controls (i.e. ED50) was determined by curve fitting program (Prism v.4.02).
# [5] = tested on: fully kindled (stage 5) seizures, amygdala kindled rat; test: Amygdala kindled rat model; assay type: in vivo; details: <60 mg/kg i.p.
# Excerpt: Amygdala kindling model is an animal model for complex partial seizures, which is the most common type of epilepsy in adults and is often drug resistant.
ED50 at 0.5 hour [2],ED50 at 0.5 hour [3],SMILES,ED50 [1],ED50 [4],suppression of fully kindled (stage 5) seizures compared to vehicle controls [5]
> 500 mg/kg,> 160 mg/kg,"CN(CC(N)=O)c1cc(C(F)(F)F)cc(C(F)(F)F)c1 [I(A), 2-[(3,5-Bis-trifluoromethyl-phenyl)-methyl-amino]-acetamide]",48 ± 1.1 mg/kg,62.5 ± 1 mg/kg,–
–,–,"NC(=O)C(F)(F)Oc1cc(Cl)cc(C(F)(F)F)c1 [Compound I(E), 2-[3-chloro-5-(trifluoromethyl)-phenoxy]-2,2-difluoro-acetamide]",–,–,dose related suppression
